The text below walks through data of patent US10047105B2, “Gyrase inhibitors” (Merck Sharp & Dohme Corp., priority 2009, dated 2018).

The subject of one assay is S. aureus ATCC 13709. As to the kind of experiment: MIC, antibacterial potency, S. aureus. The class given is cell-based. The settings on record: S. aureus.
Another assay concerns S. pneumoniae ATCC 51916. As to the kind of experiment: MIC, S. pneumoniae. The class given is cell-based. Particulars: S. pneumoniae.

The structures appear in SMILES notation. Converted amounts (≈) assume the structure as drawn.

`CCc1[nH]c2nc(Cc3cccnc3)nc(N3CC(NC(=O)OC(C)(C)C)C3)c2c1Cl` [700,461]: in the assay with S. aureus ATCC 13709, the MIC, SA came to 1 µg/mL (≈ 2.26 µM). In addition, in the assay on S. pneumoniae ATCC 51916, the MIC Spn52 is > 64 µg/mL.
In the case of `CCc1[nH]c2nc(Sc3cnc4nccnc4c3)nc(N3CCC[C@H]3CN)c2c1Cl` [700,462], the MIC, SA with S. aureus ATCC 13709 was > 64 µg/mL. The compound also had an MIC Spn52 against S. pneumoniae ATCC 51916 of 32 µg/mL (≈ 72.6 µM).
As for `CCc1[nH]c2nc(Sc3cnc4nccnc4c3)nc(N3CC(CN)C3)c2c1Cl` [700,463], in the assay on S. aureus ATCC 13709, the MIC, SA worked out at 2 µg/mL (≈ 4.68 µM). In addition, in the assay with S. pneumoniae ATCC 51916, the MIC Spn52 came to 4 µg/mL (≈ 9.37 µM).
As to `CCc1[nH]c2nc(Sc3cnc4c(N)nc(N)nc4c3)nc(N3CC(C(=O)O)C3)c2c1Cl.O=C(O)C(F)(F)F.O=C(O)C(F)(F)F` [700,464], the MIC, SA in the assay with S. aureus ATCC 13709 was > 64 µg/mL. The MIC Spn52 in the assay on S. pneumoniae ATCC 51916 is > 64 µg/mL.
`CCc1[nH]c2nc(Oc3cccnc3)nc(N3CCN(c4cnccn4)CC3)c2c1Cl.O=C(O)C(F)(F)F` [700,465] came in with an MIC, SA against S. aureus ATCC 13709 of 8 µg/mL. In addition, the MIC Spn52 against S. pneumoniae ATCC 51916 was determined as 32 µg/mL.
In the assay with S. aureus ATCC 13709, `CCc1[nH]c2nc(Oc3cncnc3)nc(Oc3cncnc3)c2c1Cl.O=C(O)C(F)(F)F` [700,466] had an MIC, SA of 4 µg/mL. Also, the MIC Spn52 with S. pneumoniae ATCC 51916 came out at 16 µg/mL.
Regarding `CCc1[nH]c2nc(Sc3cnc4nccnc4c3)nc(N3CC(CN)C3)c2c1Br` [700,467], in the assay with S. aureus ATCC 13709, the MIC, SA was 4 µg/mL (≈ 8.49 µM). The compound also gave an MIC Spn52 in the assay with S. pneumoniae ATCC 51916 of 16 µg/mL (≈ 33.9 µM).
Consider `CCc1[nH]c2nc(Sc3cnc4nccnc4c3)nc(N3CC(CNS(C)(=O)=O)C3)c2c1Br` [700,468], for which the MIC, SA against S. aureus ATCC 13709 was ≤ 0.5 µg/mL. The compound also came in with an MIC Spn52 in the assay on S. pneumoniae ATCC 51916 of 1 µg/mL (≈ 1.82 µM).
With `CCc1[nH]c2nc(Sc3cnc4nccnc4c3)nc(N3CC(N)C3)c2c1Br` [700,469], the MIC, SA against S. aureus ATCC 13709 turned out to be 1 µg/mL (≈ 2.19 µM). In the assay on S. pneumoniae ATCC 51916, this compound displayed an MIC Spn52 of 2 µg/mL (≈ 4.37 µM).
For `CCc1[nH]c2nc(Sc3cnc4nccnc4c3)nc(N3CC(NS(C)(=O)=O)C3)c2c1Br` [700,470], in the assay with S. aureus ATCC 13709, the MIC, SA is ≤ 0.5 µg/mL. The compound further showed an MIC Spn52 in the assay on S. pneumoniae ATCC 51916 of 1 µg/mL (≈ 1.87 µM).
As for `CCc1[nH]c2nc(Sc3cnc4sc(NC(C)=O)nc4c3)nc(N3CC(N)C3)c2c1Br` [700,471], in the assay with S. aureus ATCC 13709, the MIC, SA came to 2 µg/mL (≈ 3.85 µM). In addition, the MIC Spn52 in the assay on S. pneumoniae ATCC 51916 was found to be 8 µg/mL (≈ 15.4 µM).
The like results for `CCc1[nH]c2nc(Sc3cnc4c(N)nc(N)nc4c3)nc(N(C)CCNC)c2c1Cl.O=C(O)C(F)(F)F.O=C(O)C(F)(F)F` [700,472] were, in that order, 64 µg/mL and 64 µg/mL.
On to `CCOC(=O)Cc1nc(N)c2ncc(Sc3nc(N4CC(O)C4)c4c(Cl)c(CC)[nH]c4n3)cc2n1.O=C(O)C(F)(F)F.O=C(O)C(F)(F)F` [700,473], for which the MIC, SA against S. aureus ATCC 13709 came out at 32 µg/mL. The MIC Spn52 in the assay on S. pneumoniae ATCC 51916 was found to be 64 µg/mL.
Regarding `CCOc1nc(Cc2cccnc2)nc2[nH]c(CC)c(Cl)c12` [700,474], in the assay on S. aureus ATCC 13709, the MIC, SA turned out to be 8 µg/mL (≈ 25.3 µM). The compound further gave an MIC Spn52 against S. pneumoniae ATCC 51916 of 8 µg/mL (≈ 25.3 µM).
`CCOC(=O)c1nc2cc(Sc3nc(N4CC(O)C4)c4c(Br)c(CC)[nH]c4n3)cnc2n(C)c1=O` [700,475]: the MIC, SA with S. aureus ATCC 13709 was > 64 µg/mL. Besides, in the assay on S. pneumoniae ATCC 51916, the MIC Spn52 is > 64 µg/mL.
Regarding `CCOc1nc(Nc2cnc3c(c2)nnn3CC2CC2)nc2[nH]c(CC)c(Br)c12.O=C(O)C(F)(F)F` [700,476], the MIC, SA in the assay on S. aureus ATCC 13709 was > 64 µg/mL. Moreover, the MIC Spn52 in the assay with S. pneumoniae ATCC 51916 is > 64 µg/mL.
For the compound `CCc1[nH]c2nc(Oc3cncc(F)c3)nc(Oc3cncc(F)c3)c2c1Cl.O=C(O)C(F)(F)F` [700,477], the MIC, SA in the assay on S. aureus ATCC 13709 came out at 1 µg/mL. This compound returned an MIC Spn52 in the assay with S. pneumoniae ATCC 51916 of 16 µg/mL.
`CCc1[nH]c2nc(Cc3cccnc3)nc(N(C)C)c2c1Cl` [700,478] displayed an MIC, SA with S. aureus ATCC 13709 of 64 µg/mL (≈ 203 µM). Also, the MIC Spn52 against S. pneumoniae ATCC 51916 was > 64 µg/mL.
As for `CCc1[nH]c2nc(Cc3cccnc3)nc(Oc3cccnc3)c2c1Cl` [700,479], the MIC, SA with S. aureus ATCC 13709 was 4 µg/mL (≈ 10.9 µM). Also, the MIC Spn52 in the assay with S. pneumoniae ATCC 51916 is 32 µg/mL (≈ 87.5 µM).
Take `CCc1[nH]c2nc(Sc3ccc4c(N)nc(N)nc4c3)nc(N3CCC3)c2c1Cl.O=C(O)C(F)(F)F.O=C(O)C(F)(F)F` [700,480]: the MIC, SA in the assay with S. aureus ATCC 13709 amounted to 16 µg/mL. Further, the MIC Spn52 in the assay on S. pneumoniae ATCC 51916 is > 64 µg/mL.
In the assay on S. aureus ATCC 13709, `CCc1[nH]c2nc(Sc3cnc4nccnc4c3)nc(OC3CNC3)c2c1Br` [700,481] gave an MIC, SA of 8 µg/mL (≈ 17.5 µM). In the assay on S. pneumoniae ATCC 51916, this compound returned an MIC Spn52 of 2 µg/mL (≈ 4.36 µM).
Regarding `CCc1[nH]c2nc(Nc3cnc4c(c3)nnn4C(C)C)nc(N3CC(O)C3)c2c1Br.O=C(O)C(F)(F)F` [700,482], the MIC, SA against S. aureus ATCC 13709 was > 64 µg/mL. For the same compound, in the assay with S. pneumoniae ATCC 51916, the MIC Spn52 was > 64 µg/mL.
